Test results reported in paper PMC6372667 (Experimental & Molecular Medicine, 2019).
Like-named read-outs stand apart in the source and are kept apart here.

Tests used:
Electric eel AChE = molecular target: T1, Electric eel AChE (Electrophorus electricus, UniProt O42275); assay: In vitro cholinesterase enzyme assay (Ellman), AChE; assay type: biochemical
T1 construct: purchased Sigma-Aldrich Co

horse serum BChE = molecular target: T2, horse serum BChE (Equus caballus, UniProt P81908); assay: Kinetic analysis of BChE inhibition (Dixon and Lineweaver−Burk plots); assay type: biochemical; conditions: for Inhibition type BChE: Dixon and Lineweaver−Burk plots
T2 construct: horse serum BChE (EC 3.1.1.8); purchased Sigma-Aldrich Co; host or cells: horse serum
T2 sequence (P81908 whole entry): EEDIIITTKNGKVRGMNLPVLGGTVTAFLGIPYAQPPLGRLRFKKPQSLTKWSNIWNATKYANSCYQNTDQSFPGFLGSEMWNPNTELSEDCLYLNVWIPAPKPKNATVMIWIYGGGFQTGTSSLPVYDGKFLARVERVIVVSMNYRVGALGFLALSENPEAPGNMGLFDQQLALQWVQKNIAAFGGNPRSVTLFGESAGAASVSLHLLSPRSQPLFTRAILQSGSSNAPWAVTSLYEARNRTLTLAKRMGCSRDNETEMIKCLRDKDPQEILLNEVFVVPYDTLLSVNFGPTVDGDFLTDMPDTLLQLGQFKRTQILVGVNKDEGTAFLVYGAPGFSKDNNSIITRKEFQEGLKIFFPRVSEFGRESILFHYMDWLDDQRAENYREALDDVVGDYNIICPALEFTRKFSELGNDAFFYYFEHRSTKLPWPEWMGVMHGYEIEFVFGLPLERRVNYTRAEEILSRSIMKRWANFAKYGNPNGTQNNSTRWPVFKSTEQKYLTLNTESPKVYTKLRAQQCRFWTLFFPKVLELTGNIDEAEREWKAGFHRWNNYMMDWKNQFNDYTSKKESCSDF
Method: The Ki was determined by interpretation of the Dixon plot, with the value of the x-axis intercept taken as −Ki.
Dixon plots for BChE inhibition by pterosin derivatives. (2S,3R)-Pterosin C (A), (2R,3R)-pterosin C (B), and (2R)-pterosin B (C) were tested in the presence of substrate concentrations of 0.2 mM (●), 0.4 mM (○), and 0.8 mM (▼).
Dixon plots for BChE inhibition by pteroside derivatives. (2R)-pteroside B (A), (2R,3R)-pteroside C (B), and (3S)-pteroside D (C) were tested in the presence of substrate concentrations of 0.2 mM (●), 0.4 mM (○), and 0.8 mM (▼). Lineweaver-Burk plots for BChE inhibition were generated with inhibitor concentrations of 0 µM (Δ), 4 µM (▼), 20 µM (○), and 100 µM (●) for (2R)-pteroside B (D); 0 µM (Δ), 0.8 µM (▼), 4 µM (○), and 20 µM (●) for (2R,3R)-pteroside C (E) and (3S)-pteroside D (F).

in vitro = in vitro ADME; conditions: for BBB permeation class: classified by Pe, given in words
Method: PAMPA (parallel artificial membrane permeation assay) was used as a high-throughput assay to predict BBB permeation. Porcine polar brain lipid (PBL) was used as an artificial membrane to predict BBB permeation. Initially, the test compound was dissolved in DMSO at 5 mg/mL. This compound stock solution (10 µL) was diluted 200-fold in a universal buffer at pH 7.4 and mixed with a multi 8-channel pipette to obtain the secondary stock solution (final concentration 25 µg/mL). The secondary stock solution (200 µL) was placed in the donor wells. The filter membrane was coated with PBL in dodecane (4 mL volume of 20 mg/mL PBL in dodecane), and 5 µL of BBB-1 lipid solution was spread on PBL by pipette. The acceptor well was filled with […] of Acceptor Sink Buffer. The acceptor filter plate was cautiously positioned on the donor plate to assemble a “sandwich” (comprising an aqueous acceptor, artificial lipid membrane and aqueous donor with test compound on the top, middle and bottom, respectively). The test compound diffuses from the donor well to the acceptor well through the lipid membrane. After 4 h of incubation at pH 7.4 and 25 °C, the concentration of the compound in the acceptor, donor, reference and blank wells was estimated with a UV plate reader, Epoch Microplate Spectrophotometer (BioTek Instruments, Inc., Winooski, VT, USA). […] Samples were analyzed in quadruplets, and the average of the four runs was reported. To monitor the consistency of the analysis set, quality control standards were run with each sample set.
PAMPA-BBB, an in vitro artificial membrane permeability assay for the BBB, is one of the most reliable physicochemical screening tools in the early stage discovery of CNS-targeted drugs. The PAMPA-BBB system models the transcellular passive diffusion of chemicals across the BBB and measures strictly passive transport mechanisms via an artificial lipid membrane on effective permeability (Pe, cm/s).

B16F10 mouse melanoma = assay: MTT cytotoxicity assay, B16F10; assay type: cell-based; conditions: 24 h
Method: Cytotoxicity was assessed using the MTT assay. Briefly, the cells were seeded into a 96-well plate at a density of 1×10^5 cells per well in 100 µL of corresponding media and incubated at 37 °C in an incubator under 5% CO2 tension for 24 h. The culture media were then replaced with 100 µL of fresh serum-free media in the presence of varied concentrations of pterosin derivatives, and cells were incubated for an additional 24 h. The control was treated with an equal amount of DMSO present in the assay for a 5 mM concentration. Then, 100 µL of MTT solution (0.5 mg/mL in Phosphate Buffered Saline (PBS)) was added to each culture. To measure the proportion of surviving cells, the media were replaced with 100 µL of DMSO 2 h after the administration of MTT solution. The absorbance was measured at 570 nm using a spectrophotometric plate reader (Molecular Devices, Sunnyvale, CA, USA).

T1 sequence (O42275 24-633): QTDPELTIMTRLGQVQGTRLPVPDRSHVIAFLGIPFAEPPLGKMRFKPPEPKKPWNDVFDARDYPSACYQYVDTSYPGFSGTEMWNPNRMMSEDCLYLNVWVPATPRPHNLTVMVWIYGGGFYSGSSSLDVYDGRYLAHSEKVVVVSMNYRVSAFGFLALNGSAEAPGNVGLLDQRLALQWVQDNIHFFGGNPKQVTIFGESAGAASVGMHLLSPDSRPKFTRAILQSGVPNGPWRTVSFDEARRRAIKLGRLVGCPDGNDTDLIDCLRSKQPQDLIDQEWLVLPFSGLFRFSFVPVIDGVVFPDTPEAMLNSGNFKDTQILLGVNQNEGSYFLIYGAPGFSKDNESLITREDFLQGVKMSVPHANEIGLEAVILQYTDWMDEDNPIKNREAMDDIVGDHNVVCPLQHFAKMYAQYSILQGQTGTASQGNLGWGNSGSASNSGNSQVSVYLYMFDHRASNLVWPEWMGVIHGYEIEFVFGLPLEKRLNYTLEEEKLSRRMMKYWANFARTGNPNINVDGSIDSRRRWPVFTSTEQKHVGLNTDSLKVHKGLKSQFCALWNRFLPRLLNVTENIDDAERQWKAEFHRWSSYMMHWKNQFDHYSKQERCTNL

Row | SMILES | IC50 (Electric eel AChE) | AChE-inhibitory activity fold lower than berberine (Electric eel AChE; ratio of IC50) | Ki (horse serum BChE) | Inhibition type BChE (horse serum BChE) | Pe fold higher than verapamil (in vitro; PAMPA-BBB) | BBB permeation class (in vitro; PAMPA-BBB) | Pe fold higher than quercetin (in vitro; from log Pe −4.22 versus literature log Pe of quercetin) | Pe fold higher than berberine (in vitro; from log Pe −4.22 versus log Pe −5.8 of berberine) | Papp at 4 h, 25 µg/mL (in vitro; pig, PAMPA, 4 h, pH 7.4, 25 °C, mean ± SD of quadruple experiments, read-out: PAMPA-BBB permeability Pe) | LD50 Based on MTT Assay, B16F10 (B16F10 mouse melanoma) | IC50 (Electric eel AChE; mean ± S.D. of three experiments, read-out: IC50 AChE) | Ki (horse serum BChE; determined by Dixon plot, read-out: Ki BChE)
1 | Cc1cc2c(c(C)c1CCO)C(=O)[C@H](C)C2 [(2R)-Pterosin B, (2R)-pterosin B] | 16.2 ± 1 µM | approximately 40 fold | 53.5 µM | Noncompetitive | 1.7 fold | high BBB permeation | approximately 600 fold | approximately 37 fold | 60.3 ± 9.8 ×10⁻⁶ cm/s | >5,000 µM | – | –
2 | Cc1cc2c(c(C)c1CCOC1OC(CO)C(O)C(O)C1O)C(=O)C(C)C2O [(2R,3R)-Pteroside C, (2R,3R)-pteroside C] | – | – | – | Mixed-type | – | very low BBB permeability | – | – | – | >5,000 µM | 3.77 ± 0.38 µM | 9.62 µM
